Legend:
Assay type in all cases: in vivo, human
[1] = test system: patients with confirmed symptomatic proximal DVT; test: Change in thrombotic burden assessed by central adjudication committee (CUS and PLS vs baseline), phase II study
From the text: (§1) The study design is illustrated in FIG. 1.
(§2) Each treatment group was to consist of 130 patients, of which at least 100 patients eligible for inclusion in the Intent-To-Treat (ITT) group. Subjects in the SanOrg34006 treatment groups were to be followed-up during a four-week period after the final assessments.
Primary efficacy parameter: change in thrombotic burden as assessed by the central adjudication committee using a 3-point ordinal outcome scale for the comparison of CUS and PLS (Perfusion Lung Scan) after 12 weeks of randomized treatment with baseline measurements (i.e. deterioration, normalization, or no relevant change) including a supplementary analysis on substantial improvement.
(§3) Secondary efficacy parameters: change in thrombotic burden using a binary scale (i.e. deterioration versus no deterioration); change of CUS on a 3-point ordinal scale; change of PLS on a 3-point ordinal scale; the composite clinical outcome (non-fatal symptomatic PE and/or recurrent DVT, death due to PE and/or DVT or unexplained, and any important change in therapeutic management of thrombotic events); coagulation markers: plasma D-dimer (fibrin fragment, released in process of thrombolysis; measure for ongoing thrombosis) and TAT (Thrombin-Antithrombin Complex) concentrations during the study treatment. • Safety

[2] = test system: patients with confirmed symptomatic proximal DVT; test: Composite clinical outcome assessed by CAC (recurrent DVT, symptomatic PE or unexplained death), phase II study
From the text: as §1, §2, §3

[3] = test system: patients with confirmed symptomatic proximal DVT; test: Bleeding events during randomized treatment, phase II study
From the text: as §1, §2
Primary safety parameters: incidence of major bleeding and decreased platelet count.

[4] = test system: patients with confirmed symptomatic proximal DVT; test: Tolerability: adverse events, laboratory parameters, vital signs, phase II study
From the text: as §1, §2
Secondary efficacy parameters: (serious) adverse events, laboratory parameters (hematology, biochemistry, coagulation status, platelet counts), and vital signs (blood pressure, heart rate, body weight).

[5] = Plasma concentrations / population pharmacokinetics of SanOrg34006, phase II study
Protocol: The secondary objective was to assess population pharmacokinetics of SanOrg34006.
Plasma concentrations of SanOrg34006 were assessed within 48 h prior to the administration of SanOrg34006 in Weeks 2, 4 and 7. In addition during Week 7 within the time frames 0.5-2 h, 2-6 h, 6-48 h and 120-168 h post dose. In a subset of patients a more extensive sampling scheme was applied with pre-dose samples before each administration and the serial scheme for Week 7 also applied to Week 1 and 12.

[6] = oral warfarin, 12-week course, ITT (N = 124)
[7] = oral warfarin, all patients with randomized treatment (N = 132)
[8] = SanOrg34006 2.5 mg SC once weekly, 12 weeks, ITT (N = 125)
[9] = SanOrg34006 5 mg SC once weekly, 12 weeks, ITT (N = 128)
[10] = SanOrg34006 7.5 mg SC once weekly, 12 weeks, ITT (N = 118)
[11] = SanOrg34006 10 mg SC once weekly, 12 weeks, ITT (N = 119)
[12] = Week 12 vs first administration

For CC(=O)CC(c1ccccc1)c1c(O)c2ccccc2oc1=O (centres unmarked) [Warfarin, warfarin, reference compound], which “Deterioration, overall change in thrombotic burden (2-point scale)” value [1, 6] is on record?
Its value is 9 (7.3) n (%).

And the “Deterioration, overall change in thrombotic burden (3-point scale)” value [1, 6]?
Its value is 9 (7.3) n (%).

What about the “No Deterioration, overall change in thrombotic burden (2-point scale)” value [1, 6] of the same compound?
The value was 115 (92.7) n (%).

And the “No Relevant Change, overall change in thrombotic burden (3-point scale)” value [1, 6]?
Its value is 84 (67.7) n (%).

And the “Normalization, overall change in thrombotic burden (3-point scale)” value [1, 6]?
Its value is 31 (25.0) n (%).

And the “Yes: fatal or non-fatal recurrent DVT, symptomatic PE or unexplained death (composite clinical outcome)” value [2, 6]?
Its value is 2 (1.6) n (%).

And the “Any Bleeding during randomized treatment” value [3, 7]?
The value was 11 (8.3) n (%).

What about the “Major Bleeding during randomized treatment” value [3, 7] of the same compound?
Its value is 1 (0.8) n (%).

And the “No Major Bleeding during randomized treatment” value [3, 7]?
Its value is 131 (99.2) n (%).

And the “tolerability in terms of adverse events (other than bleeding events), laboratory parameters, and vital signs” value ([4]; all SanOrg34006 doses, warfarin)?
The value was “generally well tolerated”.

Which results are given for CO[C@H]1O[C@H](COS(=O)(=O)O)[C@@H](O[C@@H]2O[C@@H](C(=O)O)[C@@H](O[C@H]3O[C@H](COS(=O)(=O)O)[C@@H](O[C@@H]4O[C@H](C(=O)O)[C@@H](O[C@H]5O[C@H](COS(=O)(=O)O)[C@@H](OC)[C@H](OC)[C@H]5OC)[C@H](OC)[C@H]4OC)[C@H](OS(=O)(=O)O)[C@H]3OS(=O)(=O)O)[C@H](OC)[C@H]2OC)[C@H](OS(=O)(=O)O)[C@H]1OS(=O)(=O)O [SanOrg34006, methyl O-(2,3,4-tri-O-methyl-6-O-sulfo-α-D-glucopyranosyl)-(1→4)-O-(2,3-di-O-methyl-β-D-glucopyranosyluronic acid)-(1→4)-O-(2,3,6-tri-O-sulfo-α-D-glucopyranosyl)-(1→4)-O-(2,3-di-O-methyl-α-L-idopyranosyluronic acid)-(1→4)-2,3,6-tri-O-sulfo-α-D-glucopyranoside]?
Deterioration, overall change in thrombotic burden (2-point scale) [1, 8]: 6 (4.8) n (%); Deterioration, overall change in thrombotic burden (3-point scale) [1, 8]: 6 (4.8) n (%); No Deterioration, overall change in thrombotic burden (2-point scale) [1, 8]: 119 (95.2) n (%); No Relevant Change, overall change in thrombotic burden (3-point scale) [1, 8]: 87 (69.6) n (%); Normalization, overall change in thrombotic burden (3-point scale) [1, 8]: 32 (25.6) n (%); Deterioration, overall change in thrombotic burden (2-point scale) [1, 9]: 8 (6.3) n (%); Deterioration, overall change in thrombotic burden (3-point scale) [1, 9]: 8 (6.3) n (%); No Deterioration, overall change in thrombotic burden (2-point scale) [1, 9]: 120 (93.8) n (%); No Relevant Change, overall change in thrombotic burden (3-point scale) [1, 9]: 89 (69.5) n (%); Normalization, overall change in thrombotic burden (3-point scale) [1, 9]: 31 (24.2) n (%); Deterioration, overall change in thrombotic burden (2-point scale) [1, 10]: 8 (6.8) n (%); Deterioration, overall change in thrombotic burden (3-point scale) [1, 10]: 8 (6.8) n (%); No Deterioration, overall change in thrombotic burden (2-point scale) [1, 10]: 110 (93.2) n (%); No Relevant Change, overall change in thrombotic burden (3-point scale) [1, 10]: 81 (68.6) n (%); Normalization, overall change in thrombotic burden (3-point scale) [1, 10]: 29 (24.6) n (%); Deterioration, overall change in thrombotic burden (2-point scale) [1, 11]: 15 (12.6) n (%); Deterioration, overall change in thrombotic burden (3-point scale) [1, 11]: 15 (12.6) n (%); No Deterioration, overall change in thrombotic burden (2-point scale) [1, 11]: 104 (87.4) n (%); No Relevant Change, overall change in thrombotic burden (3-point scale) [1, 11]: 74 (62.2) n (%); Normalization, overall change in thrombotic burden (3-point scale) [1, 11]: 30 (25.2) n (%); efficacy compared with warfarin ([1]; SanOrg34006 doses tested): No differences in efficacy; dose-response relationship for primary and secondary efficacy endpoints ([1]; tested doses 2.5-10 mg): No statistically significant dose-response relationship; No fatal or non-fatal recurrent DVT, symptomatic PE or unexplained death (composite clinical outcome) [2, 8]: 125 (100.0) n (%); Yes: fatal or non-fatal recurrent DVT, symptomatic PE or unexplained death (composite clinical outcome) [2, 8]: 0 (0.0) n (%); No fatal or non-fatal recurrent DVT, symptomatic PE or unexplained death (composite clinical outcome) [2, 9]: 126 (98.4) n (%); Yes: fatal or non-fatal recurrent DVT, symptomatic PE or unexplained death (composite clinical outcome) [2, 9]: 2 (1.6) n (%); No fatal or non-fatal recurrent DVT, symptomatic PE or unexplained death (composite clinical outcome) [2, 10]: 118 (100.0) n (%); Yes: fatal or non-fatal recurrent DVT, symptomatic PE or unexplained death (composite clinical outcome) [2, 10]: 0 (0.0) n (%); No fatal or non-fatal recurrent DVT, symptomatic PE or unexplained death (composite clinical outcome) [2, 11]: 116 (97.5) n (%); Yes: fatal or non-fatal recurrent DVT, symptomatic PE or unexplained death (composite clinical outcome) [2, 11]: 3 (2.5) n (%); dose group outcome under stopping rule for major bleedings ([3]; in vivo): prematurely discontinued; plasma concentrations relative to levels associated with an increased bleeding risk ([5]; 2.5 mg SanOrg34006): remained below the levels associated with an increased bleeding risk; share of patient population with plasma levels 'too low' in terms of the ACCP guidelines ([5]; 2.5 mg dose group): 75%; dose proportionality of pharmacokinetics ([5]; 2.5-10 mg once weekly): Dose-proportional; AUC values at steady state relative to first administration [5, 12]: twice as high; trough concentrations at steady state relative to first administration [5, 12]: three times as high; anti-Xa activity corresponding with plasma trough levels ([5]; dose of 2.5 mg, once a week): 0.09-0.26 anti-Xa U/mL; plasma trough levels (Cmin) ([5]; dose of 2.5 mg, once a week): 126 ± 63 ng/mL; time at which steady state had been reached ([5]; once-weekly administration): Week 12; tolerability in terms of adverse events (other than bleeding events), laboratory parameters, and vital signs ([4]; in vivo): generally well tolerated

Reference: US7709463B2, “Idraparinux (SanOrg34006) for treatment of venous events in patients with deep venous thrombosis” (Sanofi-Aventis, priority 2002, dated 2010)
